# Source: paper PMC10120312 (Cell Insight, 2022)
# What was measured:
# EV-A71 [1] = assay: Viral entry assay; type: cell-based; settings: qRT-PCR; PTC-209HBr 3.2 μM, enviroxime 0.32 μM, pirodavir 0.64 μM; MOI 30
# EV-A71 VP1 = EV-A71 VP1 (Human enterovirus 71, UniProt Q66478); type: binding; settings: MST, 500 nM VP1-EGFP
# VP1 and hSCARB2 = VP1 and hSCARB2 (Human enterovirus 71, UniProt Q66478); assay: IF assay of colocalization between VP1 and hSCARB2; type: cell-based; settings: RD cells, vs untreated cells
# EV-A71 [2] = assay: Viral binding assay; type: cell-based; settings: qRT-PCR; PTC-209HBr 3.2 μM, enviroxime 0.32 μM, pirodavir 0.64 μM; MOI 30
# EV-A71 [3] = assay: CPE assay against EV-A71 in RD cells; type: cell-based, Enterovirus 71 (EV-A71); settings: Enterovirus A, EVA71, RD, read-out: EC50 against EV-A71
# Sequence of VP1 and hSCARB2 (Q66478 324-565): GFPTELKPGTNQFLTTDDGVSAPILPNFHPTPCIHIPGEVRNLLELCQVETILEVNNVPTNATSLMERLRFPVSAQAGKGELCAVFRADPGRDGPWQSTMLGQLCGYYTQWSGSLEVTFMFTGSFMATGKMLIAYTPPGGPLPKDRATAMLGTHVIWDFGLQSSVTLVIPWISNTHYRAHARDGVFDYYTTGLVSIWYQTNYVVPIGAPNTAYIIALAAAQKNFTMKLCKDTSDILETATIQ
# Sequence of VP1 and hSCARB2 (Q66478 566-862): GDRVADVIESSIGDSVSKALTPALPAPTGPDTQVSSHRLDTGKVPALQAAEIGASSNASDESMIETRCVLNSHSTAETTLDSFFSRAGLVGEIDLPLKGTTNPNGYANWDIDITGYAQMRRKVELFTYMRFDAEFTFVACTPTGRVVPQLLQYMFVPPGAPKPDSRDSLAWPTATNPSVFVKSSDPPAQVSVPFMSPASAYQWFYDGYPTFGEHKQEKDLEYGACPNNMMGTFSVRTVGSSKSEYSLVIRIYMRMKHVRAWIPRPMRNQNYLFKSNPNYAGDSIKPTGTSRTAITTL
# Sequence of VP1 and hSCARB2 (Q66478 70-323): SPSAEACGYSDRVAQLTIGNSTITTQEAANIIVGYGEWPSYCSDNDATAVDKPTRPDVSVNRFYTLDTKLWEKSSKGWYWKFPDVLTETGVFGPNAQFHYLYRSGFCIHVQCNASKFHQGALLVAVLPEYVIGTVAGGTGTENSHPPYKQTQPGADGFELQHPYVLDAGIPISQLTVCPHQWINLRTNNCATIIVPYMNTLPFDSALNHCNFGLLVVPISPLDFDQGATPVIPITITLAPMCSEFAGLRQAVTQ
# Sequence of VP1 and hSCARB2 (Q66478 2-69): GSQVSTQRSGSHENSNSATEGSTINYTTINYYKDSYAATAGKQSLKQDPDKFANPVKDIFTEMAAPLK
# Sequence of EV-A71 VP1 (Q66478 566-862): as the sequence (Q66478 566-862) above
Kd VP1 (EV-A71 VP1),Colocalization between VP1 and hSCARB2 in EV-A71-infected cells (VP1 and hSCARB2),Inhibition of EV-A71 binding (RNA level) (EV-A71 [2]),EC50 (EV-A71 [3]),Structure (SMILES),Inhibition of EV-A71 entry (RNA level) (EV-A71 [1])
low binding affinity,decreased,little inhibited,178 nM,"CC(C)S(=O)(=O)n1c(N)nc2ccc(/C(=N/O)c3ccccc3)cc21 [Enviroxime, enviroxime]",little inhibited
–,–,dramatically inhibit,5250 nM,"CCOC(=O)c1ccc(OCCC2CCN(c3ccc(C)nn3)CC2)cc1 [Pirodavir, pirodavir]",but not entry
